The results in this text go back to patent US9012365B2, “Compatibility agents for herbicidal formulations comprising 2,4-(Dichlorophenoxy) acetic acid salts” (priority 2006, dated 2015).

The nature of the data set: Appearance of 10 g solution of (2.5 wt % ai 2,4-D DMA + tested chemical) after adding 40% AMS. The format is physicochemical. The following applies: 2.5 wt % ai 2,4-D DMA; for Addition Weight of 40% AMS: System was clear after adding / Addition Weight of 40% AMS: System was cloud after adding: 10 g solution. On the procedure:
In this example, the appearance of a 10 g solution of (2.5 wt % ai 2,4-D DMA+tested chemical) was evaluated after adding 40% AMS

Where [1] appears, read: 0.13 wt % a.i. of tested chemical, 0 gram 40% AMS.
Where [2] appears, read: 0.13 wt % a.i. of tested chemical.
Setting [3] is: 1.25 wt % a.i. of tested chemical.
[4] abbreviates: 0.05 wt % a.i. of tested chemical.
Where [5] appears, read: 0.04 wt % a.i. of tested chemical.

Values joined by “and” are separate entries in the source; they are usually repeats but may differ in a detail not shown here. Equal values may be shown once.

On to “C6-10 isopropylamine alcohol ether sulfate”, for which, under setting [1], the “0 gram Appearance” value is on record as “Clear”. In addition, under setting [2], the “Addition Weight of 40% AMS: System was clear after adding” value is given as 0.528 grams and the “Addition Weight of 40% AMS: System was cloud after adding” value is recorded as 0.712 grams.
Cocotrimethyl Chloride: the “0 gram Appearance” value under setting [1] is reported as “Clear”. Also, under setting [2], the “Addition Weight of 40% AMS: System was clear after adding” value is 2.038 grams and the “Addition Weight of 40% AMS: System was cloud after adding” value was 2.123 grams.
The matching figures for Nonylphenol-9EO: “Clear”, 0.473 grams and 0.601 grams.
On to C10-12 alcohol ethoxylate (7EO), for which, under setting [1], the “0 gram Appearance” value was “Clear”. Further, under setting [2], the “Addition Weight of 40% AMS: System was clear after adding” value was 0.829 grams and 0.903 grams; the “Addition Weight of 40% AMS: System was cloud after adding” value is 1.033 grams and 1.026 grams.
With Trideceth-6, the “0 gram Appearance” value under setting [1] is reported as “Clear”. For the same compound, under setting [2], the “Addition Weight of 40% AMS: System was clear after adding” value was found to be 0.47 grams and the “Addition Weight of 40% AMS: System was cloud after adding” value was 0.717 grams.
As for Oleylamphopolycarboxyglycinate, the “0 gram Appearance” value under setting [1] is recorded as “Clear”. Moreover, under setting [2], the “Addition Weight of 40% AMS: System was clear after adding” value is 0.261 grams and the “Addition Weight of 40% AMS: System was cloud after adding” value came out at 0.459 grams.
The matching figures for Cocamide DEA: “Clear”, 0.701 grams and 0.987 grams.
Take Cocodimethylamidopropylamine: the “0 gram Appearance” value under setting [1] is recorded as “Clear”. Besides, under setting [2], the “Addition Weight of 40% AMS: System was clear after adding” value is 1.488 grams and the “Addition Weight of 40% AMS: System was cloud after adding” value amounted to 1.731 grams.
Consider Triethyl ammonium phosphate, for which, under setting [3], the “0 gram Appearance” value is on record as “Clear”, the “Addition Weight of 40% AMS: System was clear after adding” value is listed as 0.303 grams and the “Addition Weight of 40% AMS: System was cloud after adding” value was 0.535 grams.
In the case of Tallowamine-14EO, the “0 gram Appearance” value under setting [1] is on record as “Clear”. Further, under setting [2], the “Addition Weight of 40% AMS: System was clear after adding” value came out at 1.273 grams and the “Addition Weight of 40% AMS: System was cloud after adding” value is on record as 1.526 grams.
For Cocoamine-10EO, the “0 gram Appearance” value under setting [1] is “Clear”. Further, under setting [2], the “Addition Weight of 40% AMS: System was clear after adding” value was determined as 1.454 grams and the “Addition Weight of 40% AMS: System was cloud after adding” value came out at 1.541 grams.
Turning to Na Cocoamphocarboxyglycinate, under setting [3], the “0 gram Appearance” value is recorded as “Clear”, the “Addition Weight of 40% AMS: System was clear after adding” value is on record as 0.25 grams and the “Addition Weight of 40% AMS: System was cloud after adding” value came to 0.508 grams.
As to Ethoxylated (20EO) sorbitol ester, the “0 gram Appearance” value under setting [1] is on record as “Clear”. Under setting [2], the “Addition Weight of 40% AMS: System was clear after adding” value was determined as 1.037 grams and the “Addition Weight of 40% AMS: System was cloud after adding” value amounted to 1.25 grams.
As for Polyoxyethylene Sorbitol Tallate, the “0 gram Appearance” value under setting [1] is “Clear”. Moreover, under setting [2], the “Addition Weight of 40% AMS: System was clear after adding” value worked out at 0.661 grams and the “Addition Weight of 40% AMS: System was cloud after adding” value amounted to 0.71 grams.
Iso C13 + 4EO phosphate ester (acid): under setting [1], the “0 gram Appearance” value was “Clear”. Also, under setting [2], the “Addition Weight of 40% AMS: System was cloud after adding” value is reported as 0.324 grams.
Consider Sodium xylene sulfonate, for which the “0 gram Appearance” value under setting [1] was “Clear”. Also, under setting [2], the “Addition Weight of 40% AMS: System was cloud after adding” value was 0.524 grams.
On to Nonylphenol-6EO (5EO), for which the “0 gram Appearance” value under setting [1] is “Hazy”. In addition, under setting [2], the “Addition Weight of 40% AMS: System was clear after adding” value was “Hazy” and the “Addition Weight of 40% AMS: System was cloud after adding” value is listed as 0 grams.
Take Nonylphenol-9EO carboxylate: the “0 gram Appearance” value under setting [1] was “Clear”. Further, under setting [2], the “Addition Weight of 40% AMS: System was clear after adding” value is listed as 1.312 grams and the “Addition Weight of 40% AMS: System was cloud after adding” value was determined as 1.692 grams.
For the compound C8-10 glycosides [Agnique PG 8166], the “0 gram Appearance” value under setting [1] was “Clear”. In addition, the “Addition Weight of 40% AMS: System was cloud after adding” value under setting [2] turned out to be 0.217 grams.
Take C11 alcohol ethoxylate (5EO): the “0 gram Appearance” value under setting [1] is recorded as “Clear”. Besides, under setting [2], the “Addition Weight of 40% AMS: System was clear after adding” value was found to be 0.819 grams and the “Addition Weight of 40% AMS: System was cloud after adding” value is recorded as 0.918 grams.
The like results for Trideceth-4 were, in that order, “cloudy”, “cloudy” and 0 grams.
Turning to Trideceth-12, under setting [1], the “0 gram Appearance” value was “Clear”. Besides, under setting [2], the “Addition Weight of 40% AMS: System was clear after adding” value was determined as 0.581 grams and the “Addition Weight of 40% AMS: System was cloud after adding” value came out at 0.688 grams.
The matching figures for `CCCCOCCOC(C)=O` [Butyl cellosolve Acetate (C4—O—C—C—OOCC), Butyl cellosolve Acetate]: “Clear”, 0.162 grams and 0.324 grams.
For Cocoamine-5EO, the “0 gram Appearance” value under setting [1] is listed as “Clear”. For the same compound, under setting [2], the “Addition Weight of 40% AMS: System was clear after adding” value amounted to 1.478 grams and the “Addition Weight of 40% AMS: System was cloud after adding” value stood at 1.633 grams.
Take Octyliminodipropionate: under setting [3], the “0 gram Appearance” value is “Clear”, the “Addition Weight of 40% AMS: System was clear after adding” value is on record as 0.283 grams and the “Addition Weight of 40% AMS: System was cloud after adding” value was 0.602 grams.
With C10-12 alcohol ethoxylate (12EO), the “0 gram Appearance” value under setting [1] is given as “Clear”. In addition, under setting [2], the “Addition Weight of 40% AMS: System was clear after adding” value is given as 0.619 grams and the “Addition Weight of 40% AMS: System was cloud after adding” value is 0.669 grams.
For the compound Phenol ethoxylate, the “0 gram Appearance” value under setting [1] was “Clear”. The “Addition Weight of 40% AMS: System was cloud after adding” value under setting [2] came to 0.577 grams.
The like results for C9-C11 glycoside were, in that order, “Clear” and 0.272 grams.
With `CCCCCCCCCCCC[N+](C)(C)CC(=O)[O-]` [Lauryldimethyl betaine], under setting [3], the “0 gram Appearance” value was “Clear”, the “Addition Weight of 40% AMS: System was clear after adding” value was found to be 0.693 grams and the “Addition Weight of 40% AMS: System was cloud after adding” value was 0.913 grams.
In the case of Tristyrylphenol + 15EO, the “0 gram Appearance” value under setting [1] was “Clear”. Also, under setting [2], the “Addition Weight of 40% AMS: System was clear after adding” value came out at 2.102 grams and the “Addition Weight of 40% AMS: System was cloud after adding” value is reported as 2.509 grams.
Consider Sodium lauryl olefin sulfonate, for which, under setting [4], the “0 gram Appearance” value was “Clear”, the “Addition Weight of 40% AMS: System was clear after adding” value amounted to 1.526 grams and the “Addition Weight of 40% AMS: System was cloud after adding” value turned out to be 2.121 grams. Further, under setting [1], the “0 gram Appearance” value is listed as “Clear”. Under setting [2], the “Addition Weight of 40% AMS: System was clear after adding” value is 1.896 grams and the “Addition Weight of 40% AMS: System was cloud after adding” value turned out to be 2.546 grams.
Consider Castor oil ethoxylate, for which the “0 gram Appearance” value under setting [1] is given as “very cloudy”. Under setting [2], the “Addition Weight of 40% AMS: System was clear after adding” value is reported as “very cloudy” and the “Addition Weight of 40% AMS: System was cloud after adding” value is recorded as 0 grams.
In the case of 2-propylheptanol-8EO, the “0 gram Appearance” value under setting [1] is given as “Clear”. Under setting [2], the “Addition Weight of 40% AMS: System was clear after adding” value is 0.43 grams and the “Addition Weight of 40% AMS: System was cloud after adding” value worked out at 0.526 grams.
Turning to “Ethoxylated (6EO) caprylic & capric glycerol ester”, under setting [1], the “0 gram Appearance” value is recorded as “Clear”. In addition, the “Addition Weight of 40% AMS: System was cloud after adding” value under setting [2] stood at 0.163 grams.
For Castor oil ethoxylate-20EO, the “0 gram Appearance” value under setting [1] is listed as “Clear”. Under setting [2], the “Addition Weight of 40% AMS: System was clear after adding” value turned out to be 0.279 grams and the “Addition Weight of 40% AMS: System was cloud after adding” value amounted to 0.521 grams.
As to `CCCCCCCCCCCCOS(=O)(=O)[O-].[Na+]` [Sodium lauryl sulfate], under setting [5], the “0 gram Appearance” value is “Clear” and the “Addition Weight of 40% AMS: System was cloud after adding” value was 0.101 grams.
Consider Propyl glycosides, for which, under setting [1], the “0 gram Appearance” value was “Clear”. Also, the “Addition Weight of 40% AMS: System was cloud after adding” value under setting [2] was found to be 0.329 grams.
For the compound Trideceth-10, the “0 gram Appearance” value under setting [1] was “Clear”. In addition, under setting [2], the “Addition Weight of 40% AMS: System was clear after adding” value amounted to 0.557 grams and the “Addition Weight of 40% AMS: System was cloud after adding” value came to 0.685 grams.
For the compound Di (propylene glycol) methyl ether, the “0 gram Appearance” value under setting [1] is on record as “Clear”. Under setting [2], the “Addition Weight of 40% AMS: System was clear after adding” value stood at 0.665 grams and the “Addition Weight of 40% AMS: System was cloud after adding” value stood at 0.829 grams.
As for C10-12 alcohol ethoxylate (9EO), the “0 gram Appearance” value under setting [1] is listed as “Clear”. Under setting [2], the “Addition Weight of 40% AMS: System was clear after adding” value was 0.519 grams and the “Addition Weight of 40% AMS: System was cloud after adding” value is listed as 0.72 grams.
Tristyrylphenol + 16EO: under setting [1], the “0 gram Appearance” value is given as “Clear”. Besides, under setting [2], the “Addition Weight of 40% AMS: System was clear after adding” value stood at 1.084 grams and the “Addition Weight of 40% AMS: System was cloud after adding” value is on record as 2.235 grams.
On to C8-10 + 4 EO phosphate ester (acid), for which the “0 gram Appearance” value under setting [1] is “Clear”. Moreover, the “Addition Weight of 40% AMS: System was cloud after adding” value under setting [2] is reported as 0.488 grams.
In the case of Trideceth-8, the “0 gram Appearance” value under setting [1] was “Clear”. Under setting [2], the “Addition Weight of 40% AMS: System was clear after adding” value was 0.458 grams and the “Addition Weight of 40% AMS: System was cloud after adding” value is reported as 0.684 grams.
For Tall oil fatty acid amidoamine-10EO, under setting [1], the “0 gram Appearance” value is recorded as “Clear”. Under setting [2], the “Addition Weight of 40% AMS: System was clear after adding” value turned out to be 1.591 grams and the “Addition Weight of 40% AMS: System was cloud after adding” value is reported as 2.243 grams.
